From patent US10335401B2, “Non-aromatic heterocyclic derivative having MGAT2 inhibitory activity” (Shionogi & Co., Ltd., priority 2015, dated 2019)

Target: recombinant human MGAT2 (Homo sapiens (Human), UniProt Q3SYC2)
Assay: Measurement of human MGAT2 inhibitory activity
Format: biochemical
Conditions: recombinant human MGAT2 membrane fraction (Sf-9); 2-Oleoylglycerol and Oleoyl-CoA substrates; 1 hour at room temperature; Diolein detected by RapidFire Q-TOF MS
Text: A full-length human MGAT2 gene to which a Flag-tag had been added at the N-terminal was inserted into pFastBac (from Invitrogen). A recombinant baculovirus was produced in accordance with the protocol for a Bac-to-Bac baculovirus expression system (produced by Invitrogen), and Sf-9 cells were infected therewith. The cells were collected and sonicated, and then the membrane fraction was collected through centrifugation.
Solutions of the compounds of the present invention in DMSO were each aliquoted into 0.2-μL portions in a 384-well polystyrene microplate produced by Corning Incorporated, and 5 μL of an enzyme solution prepared with an assay buffer (100 mmol/L phosphate buffer (pH 7.4) containing 2 mmol/L DTT) and 5 μL of a substrate solution (100 mmol/L phosphate buffer (pH 7.4), 30 μmol/L 2-Oleoylglycerol, 10 μmol/L Oleoyl-CoA) were added thereto, and the resultant was stirred and centrifuged, and incubated in a moist chamber at room temperature for 1 hour. […] Diolein as a reaction product (P) of 2-Oleoylglycerol as the substrate and an ammonium adduct ion of the IS were detected, and the peak intensity ratio, P/IS, was calculated from the peak heights to evaluate the inhibitory activity. […] The inhibitory activity was calculated from the formula below with TIBCO Spotfire (produced by TIBCO Software Inc.): Inhibitory activity (%)=[1−{Sample−Control(−)}/{Control(+)−Control(−))}]*100 where Sample indicates a peak intensity ratio: P/IS, when the compound of the present invention was added.

Sequence of recombinant human MGAT2 (Q3SYC2 whole entry): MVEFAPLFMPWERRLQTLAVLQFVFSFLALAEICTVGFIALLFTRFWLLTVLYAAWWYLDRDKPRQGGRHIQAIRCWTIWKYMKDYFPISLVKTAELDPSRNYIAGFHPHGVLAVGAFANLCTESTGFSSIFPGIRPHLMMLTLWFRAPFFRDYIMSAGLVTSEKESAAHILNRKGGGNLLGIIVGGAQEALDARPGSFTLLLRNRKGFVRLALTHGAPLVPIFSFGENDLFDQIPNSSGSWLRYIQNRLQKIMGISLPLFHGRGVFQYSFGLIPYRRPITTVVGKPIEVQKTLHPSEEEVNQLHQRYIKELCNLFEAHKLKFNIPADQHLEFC

SMILES	IC50 [nM]
CS(=O)(=O)CC(=O)NCC1=C(c2ccc(OC(F)F)cn2)C[C@](c2ccc(C3CC3)cc2)(C(F)(F)F)NC1=O [Compound I-95]	17
CS(=O)(=O)CC(=O)NCC1=C(c2ccc(C(F)F)cn2)C[C@](c2ccc(C3CC3)cc2)(C(F)(F)F)NC1=O [Compound I-88]	21
COc1ccc(C2=C(CNC(=O)C3(C#N)CC3)C(=O)N[C@@](c3ccc(OCCCC(F)(F)F)cc3)(C(F)(F)F)C2)nc1 [Compound I-39]	91
COc1ccc(C2=C(CNS(=O)(=O)c3ccccc3)C(=O)N[C@@](c3ccc(OCCCC(F)(F)F)cc3)(C(F)(F)F)C2)nc1 [Compound I-23]	750
COC(=O)NCC1=C(c2ccc(C)cn2)C[C@](c2ccc(OCCCC(F)(F)F)cc2)(C(F)(F)F)NC1=O [Compound I-7]	150
CC(=O)NCC1=C(c2ccc(C(C)C)cn2)C[C@](c2ccc(OCCCC(F)(F)F)cc2)(C(F)(F)F)NC1=O [Compound I-35]	18
CC(C)c1ccc(C2=C(CNC(=O)CC(=O)O)C(=O)N[C@@](c3ccc(OCCCC(F)(F)F)cc3)(C(F)(F)F)C2)nc1 [Compound I-55]	160
C=C(C)c1ccc(C2=C(CNC(=O)CS(C)(=O)=O)C(=O)N[C@@](c3ccc(OCCCC(F)(F)F)cc3)(C(F)(F)F)C2)nc1 [Compound I-72]	1
Cc1ccc(C2=C(CNC(=O)C3CC3)C(=O)N[C@@](c3ccc(OCCCC(F)(F)F)cc3)(C(F)(F)F)C2)nc1 [Compound I-8]	13
CS(=O)(=O)CC(=O)NCC1=C(c2ccc(C(F)F)cn2)CC(c2ccc(Br)cc2F)(C(F)(F)F)NC1=O (stereo not shown) [Compound I-111]	33
CS(=O)(=O)CC(=O)NCC1=C(c2ccc(C(F)F)cn2)C[C@](c2ccc(OCC(F)(F)F)cc2)(C(F)(F)F)NC1=O [Compound I-91]	6.8
CS(=O)(=O)CC(=O)NCC1=C(c2ccc(OC(F)F)cn2)C[C@](c2ccc(Br)cc2)(C(F)(F)F)NC1=O [Compound I-78]	25
COc1ccc(C2=C(CNS(=O)(=O)CC(F)(F)F)C(=O)N[C@@](c3ccc(OCCCC(F)(F)F)cc3)(C(F)(F)F)C2)nc1 [Compound I-19]	240
CC(C)(C#N)C(=O)NCC1=C(c2ccc(C(C)(C)O)cn2)C[C@](c2ccc(OCCCC(F)(F)F)cc2)(C(F)(F)F)NC1=O [Compound I-52]	3.1
CS(=O)(=O)CC(=O)NCC1=C(c2ccc(OC(F)F)cn2)C[C@](c2ccc(C(F)(F)F)cc2)(C(F)(F)F)NC1=O [Compound I-108]	46
CS(=O)(=O)CC(=O)NCC1=C(c2ccc(C(F)F)cn2)C[C@](c2ccc(OC(F)(F)F)cc2)(C(F)(F)F)NC1=O [Compound I-90]	27
CC(C)c1ccc(C2=C(CNC(=O)CS(C)(=O)=O)C(=O)N[C@@](c3ccc(OCCCC(F)(F)F)cc3)(C(F)(F)F)C2)nc1 [Compound I-43]	< 1
CC(C)(O)c1ccc(C2=C(CNC(=O)CS(C)(=O)=O)C(=O)N[C@@](c3ccc(OCCCC(F)(F)F)cc3)(C(F)(F)F)C2)nc1 [Compound I-47]	0.73
CC(=O)NCC1=C(c2ccc(C(F)F)cn2)C[C@](c2ccc(OCCCC(F)(F)F)cc2)(C(F)(F)F)NC1=O [Compound I-58]	34
COc1ccc(C2=C(CNC(=O)OC(C)C)C(=O)N[C@@](c3ccc(OCCCC(F)(F)F)cc3)(C(F)(F)F)C2)nc1 [Compound I-33]	340

SMILES	IC50 [nM]
COc1ccc(C2=C(CNC(=O)C(C)C)C(=O)N[C@@](c3ccc(OCCCC(F)(F)F)cc3)(C(F)(F)F)C2)nc1 [Compound I-14]	8
O=C(CC(F)(F)F)NCC1=C(c2ccc(C(F)F)cn2)C[C@](c2ccc(OCCCC(F)(F)F)cc2)(C(F)(F)F)NC1=O [Compound I-112]	3.8
CC(=O)NCC1=C(c2ccc(CO)cn2)C[C@](c2ccc(OCCCC(F)(F)F)cc2)(C(F)(F)F)NC1=O [Compound I-9]	29
Cc1ccc(C2=C(CNC(=O)CS(C)(=O)=O)C(=O)N[C@@](c3ccc(OCCCC(F)(F)F)cc3)(C(F)(F)F)C2)nc1 [Compound I-10]	< 4.6
CC(C)(O)c1ccc(C2=C(CNC(=O)C3CS(=O)(=O)C3)C(=O)N[C@@](c3ccc(OCCCC(F)(F)F)cc3)(C(F)(F)F)C2)nc1 [Compound I-48]	3.2
CC(C)c1ccc(C2=C(CNC(=O)C3CS(=O)(=O)C3)C(=O)N[C@@](c3ccc(OCCCC(F)(F)F)cc3)(C(F)(F)F)C2)nc1 [Compound I-44]	9.2
CS(=O)(=O)CC(=O)NCC1=C(c2ncc(C3CC3)s2)C[C@](c2ccc(OCCCC(F)(F)F)cc2)(C(F)(F)F)NC1=O [Compound I-69]	43
Cc1ccc(C2=C(CNS(C)(=O)=O)C(=O)N[C@@](c3ccc(OCCCC(F)(F)F)cc3)(C(F)(F)F)C2)nc1 [Compound I-3]	120
COc1ccc(C2=C(CNC(=O)C(C)(C)O)C(=O)N[C@@](c3ccc(OCCCC(F)(F)F)cc3)(C(F)(F)F)C2)nc1 [Compound I-41]	75
COc1ccc(C2=C(CNC(=O)CO)C(=O)N[C@@](c3ccc(OCCCC(F)(F)F)cc3)(C(F)(F)F)C2)nc1 [Compound I-40]	43
Cn1cc(-c2ccc([C@]3(C(F)(F)F)CC(c4ccc(OC(F)F)cn4)=C(CNC(=O)CS(C)(=O)=O)C(=O)N3)cc2)cn1 [Compound I-98]	70
CC(C(=O)NCC1=C(c2ccc(C(F)F)cn2)C[C@](c2ccc(OCCCC(F)(F)F)cc2)(C(F)(F)F)NC1=O)S(C)(=O)=O (stereo partly shown) [Compound I-85]	24
O=C1N[C@@](c2ccc(OCCCC(F)(F)F)cc2)(C(F)(F)F)CC(c2ccc(C(F)F)cn2)=C1CNC(=O)C1CNC1 [Compound I-65]	280
CS(=O)(=O)CC(=O)NCC1=C(c2ccc(C(F)F)cn2)C[C@](c2ccc(CCC(F)(F)F)cc2)(C(F)(F)F)NC1=O [Compound I-86]	1.9
COc1ccc(C2=C(CNC(=O)CC(F)(F)F)C(=O)N[C@@](c3ccc(OCCCC(F)(F)F)cc3)(C(F)(F)F)C2)nc1 [Compound I-13]	3.3
CS(=O)(=O)CC(=O)NCC1=C(c2ccc(C(F)F)cn2)C[C@](c2ccc(CN3CCOCC3)cc2)(C(F)(F)F)NC1=O [Compound I-97]	39
CS(=O)(=O)C1(C(=O)NCC2=C(c3ccc(C(F)F)cn3)C[C@](c3ccc(OCCCC(F)(F)F)cc3)(C(F)(F)F)NC2=O)CC1 [Compound I-81]	140
CS(=O)(=O)CC(=O)NCC1=C(c2ccc(C(F)F)cn2)CC(c2cnn(CCCC(F)(F)F)c2)(C(F)(F)F)NC1=O (racemic) [Compound I-110]	91
CS(=O)(=O)CC(=O)NCC1=C(c2ccc(Br)cn2)C[C@@](c2ccc(OCCCC(F)(F)F)cc2)(C(F)(F)F)NC1=O [Compound I-71]	940
CS(=O)(=O)CC(=O)NCC1=C(c2ccc(C(F)F)cn2)C[C@](c2ccccc2)(C(F)(F)F)NC1=O [Compound I-115]	110
